Measurements published in the supplement of paper PMC10307832.

Key:
Test in all cases: relative viability (nuclei count vs DMSO), 5 days (fraction); higher = more cells survive
Palbociclib = compound: CC(=O)c1c(C)c2cnc(Nc3ccc(N4CCNCC4)cn3)nc2n(C2CCCC2)c1=O [Palbociclib]
Method in brief: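 Lung cancer cell lines were seeded into 1536-well plates, kept overnight at 37 °C and pinned with five library-drug doses (not always all listed) spaced by √10. After 5 days, nuclei were Hoechst-stained, imaged at 4× and counted with MetaXpress. Viability is treated-well nuclei over vehicle-well nuclei, taken as a median across plates. Plates needed control CV below 25% and at least one doubling.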

Palbociclib + Bortezomib = compound: CC(=O)c1c(C)c2cnc(Nc3ccc(N4CCNCC4)cn3)nc2n(C2CCCC2)c1=O [Palbociclib] + CC(C)C[C@H](NC(=O)[C@H](Cc1ccccc1)NC(=O)c1cnccn1)B(O)O [Bortezomib] (partner 0.002 µM)
Method in brief: (§1)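 Cells from lung cancer lines were seeded into 1536-well plates and, one day later, dosed by pin tool. Treatments were either a single drug or a fixed dose of an anchor drug with five library-drug doses (not always all listed) in √10 steps. After 5 days, nuclei were stained in a one-step fixation (final 0.05% Triton X-100, 1% formaldehyde, 1 ug/ml Hoechst) and counted on 4× images, and relative viability is the treated-to-vehicle nuclei ratio, as the median of duplicate plates.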

Palbociclib + Pemetrexed = compound: CC(=O)c1c(C)c2cnc(Nc3ccc(N4CCNCC4)cn3)nc2n(C2CCCC2)c1=O [Palbociclib] + Nc1nc2[nH]cc(CCc3ccc(C(=O)N[C@@H](CCC(=O)O)C(=O)O)cc3)c2c(=O)[nH]1 [Pemetrexed] (partner 0.2 µM)
Method in brief: as §1

Row | Cell Line | relative viability (Palbociclib; 0.01 µM) | relative viability (Palbociclib; 0.03162 µM) | relative viability (Palbociclib; 0.1 µM) | relative viability (Palbociclib; 0.3162 µM) | relative viability (Palbociclib; 0.5 µM, anchor plate) | relative viability (Palbociclib; 1 µM) | relative viability (Palbociclib + Bortezomib; first compound 0.01 µM) | relative viability (Palbociclib + Bortezomib; first compound 0.03162 µM) | relative viability (Palbociclib + Bortezomib; first compound 0.1 µM) | relative viability (Palbociclib + Bortezomib; first compound 0.3162 µM) | relative viability (Palbociclib + Bortezomib; first compound 1 µM) | relative viability (Palbociclib + Pemetrexed; first compound 0.01 µM) | relative viability (Palbociclib + Pemetrexed; first compound 0.03162 µM) | relative viability (Palbociclib + Pemetrexed; first compound 0.1 µM) | relative viability (Palbociclib + Pemetrexed; first compound 0.3162 µM) | relative viability (Palbociclib + Pemetrexed; first compound 1 µM)
1 | NCI-H520 | 0.915 | 0.677 | 0.596 | 0.549 | 0.237 | 0.36 | 0.496 | 0.496 | 0.35 | 0.403 | 0.236 | 0.636 | 0.573 | 0.554 | 0.331 | 0.267
2 | EPLC-272H | 1.07 |  | 0.798 | 0.828 | 0.33 | 0.456 | 0.836 |  | 0.792 | 0.883 | 0.512 | 0.278 | 0.322 | 0.408 | 0.539 | 0.512
3 | NCI-H1792 | 0.987 | 0.8 | 0.696 | 0.612 | 0.678 | 0.383 | 0.934 | 0.875 | 0.917 | 0.852 | 0.711 | 0.984 | 0.557 | 0.438 | 0.427 | 0.264
4 | CAL-12T | 1 | 0.851 | 0.75 | 0.651 | 0.446 | 0.611 | 1.04 |  |  | 0.674 | 0.405 | 1.14 | 1.1 | 0.924 | 0.672 | 0.637
5 | NCI-H650 | 0.971 |  | 0.711 | 0.794 | 0.327 | 0.516 | 0.912 |  | 0.61 | 0.637 | 0.377 | 0.946 |  | 0.7 | 0.725 | 0.483
6 | HARA | 1.1 |  | 0.746 | 0.652 | 0.262 | 0.392 | 1.07 | 1.02 | 1 | 0.874 | 0.389 | 0.253 | 0.265 | 0.274 | 0.262 | 0.212
7 | NCI-H1975 | 0.923 | 0.949 | 0.924 | 0.865 | 0.593 | 0.793 | 0.356 | 0.356 | 0.349 | 0.406 | 0.366 | 0.293 | 0.284 | 0.276 | 0.294 | 0.256
8 | NCI-H2023 | 0.913 | 0.773 | 0.694 | 0.625 | 0.392 | 0.4 | 0.96 | 0.279 | 0.705 | 0.654 | 0.391 | 0.203 | 0.188 | 0.169 | 0.174 | 0.142
9 | NCI-H661 | 0.968 | 0.862 | 0.765 | 0.611 | 0.415 | 0.455 | 0.874 | 0.584 | 0.588 | 0.649 | 0.521 | 0.878 | 0.792 | 0.645 | 0.571 | 0.416
10 | NCI-H1651 | 0.967 | 0.971 | 0.986 | 0.971 | 0.537 | 0.772 | 1 | 0.9 | 0.981 | 0.915 | 0.8 | 0.572 | 0.563 | 0.562 | 0.511 | 0.394
11 | NCI-H1437 | 1.02 | 0.877 | 0.863 | 0.823 | 0.311 | 0.571 | 0.525 | 0.533 | 0.442 | 0.408 | 0.318 | 0.33 | 0.338 | 0.339 | 0.33 | 0.269
12 | EKVX | 1.12 | 0.733 | 0.766 | 0.882 | 0.394 | 0.544 | 1.12 | 0.916 | 1.04 | 0.989 | 0.461 | 0.392 |  | 0.353 | 0.317 | 0.243
13 | NCI-H2347 | 1.05 | 0.905 | 0.87 | 0.775 | 0.424 | 0.684 | 1.01 |  | 0.929 |  | 0.684 | 0.39 | 0.407 | 0.368 | 0.413 | 0.386
14 | H3255 | 1.04 | 0.922 | 0.823 | 0.904 | 0.316 | 0.519 | 0.912 | 0.789 | 0.624 | 0.641 | 0.317 | 0.602 | 0.59 | 0.576 | 0.488 | 0.397
15 | NCI-H2405 | 0.996 | 0.797 | 0.842 | 0.889 | 0.52 | 0.654 | 0.973 | 0.769 | 0.847 | 1.01 | 0.597 | 1.06 | 1.14 | 0.941 | 0.799 | 0.523
16 | UMC-11 | 1 | 0.824 | 0.709 | 0.575 | 0.332 | 0.291 | 0.934 | 0.625 | 0.466 | 0.292 | 0.238 | 0.795 | 0.726 | 0.594 | 0.473 | 0.308
17 | LCLC-97TM1 | 1.03 |  | 0.657 | 0.741 | 0.225 | 0.272 | 0.729 | 0.514 | 0.396 | 0.319 | 0.138 | 0.201 |  | 0.168 | 0.156 | 0.167
18 | HCC-44 | 0.891 | 0.82 | 0.969 | 0.96 | 0.962 | 1.02 | 0.824 | 0.804 | 0.844 | 0.836 | 0.911 | 0.626 | 0.63 | 0.592 | 0.634 | 0.666
19 | NCI-H322M | 0.888 | 0.825 | 0.633 | 0.648 | 0.492 | 0.502 | 1.27 | 1.07 | 1.07 | 1.01 | 0.785 | 0.604 | 0.499 | 0.651 | 0.573 | 0.362
20 | NCI-H1355 | 0.999 | 0.672 | 0.884 | 0.844 | 0.427 | 0.62 | 1.14 |  | 1.17 | 1.01 | 0.723 | 1.13 | 0.548 | 0.947 | 0.912 | 0.739
21 | COR-L23 | 1.05 | 0.886 | 0.739 | 0.808 | 0.293 | 0.528 | 0.952 | 0.795 | 0.831 | 0.721 | 0.344 | 0.183 | 0.202 | 0.201 | 0.191 | 0.203
